Earlier results on three compounds are cited in paper PMC5863612 (Chemical Science, 2017).

What is called Km is the concentration of substrate that gives half-maximal velocity.

This series concerns βPGM. The settings on record: for Km: previously recorded result.

As to fluorine, the “Inhibition of βPGM (reported range)” value is given as “low millimolar range”.
Consider `O=P(O)(O)O[C@@H]1O[C@H](CO)[C@@H](O)[C@H](O)[C@H]1O` [βG1P, β-D-glucose 1-phosphate], for which the Km was 14.7 µM.
For `O=P(O)(O)OC[C@H]1O[C@@H](OP(=O)(O)O)[C@H](O)[C@@H](O)[C@@H]1O` [βG16BP, β-glucose-1,6-bisphosphate], the Michaelis-Menten constant (Km) is 0.72 ± 0.04 µM.
